Experimental data from BindingDB's records for doi:10.7270/Q2J101KZ (University of Pittsburgh, 2007).

Target: T1, M-phase inducer phosphatase 2 (Homo sapiens, UniProt P30305)
T1 sequence (P30305 whole entry): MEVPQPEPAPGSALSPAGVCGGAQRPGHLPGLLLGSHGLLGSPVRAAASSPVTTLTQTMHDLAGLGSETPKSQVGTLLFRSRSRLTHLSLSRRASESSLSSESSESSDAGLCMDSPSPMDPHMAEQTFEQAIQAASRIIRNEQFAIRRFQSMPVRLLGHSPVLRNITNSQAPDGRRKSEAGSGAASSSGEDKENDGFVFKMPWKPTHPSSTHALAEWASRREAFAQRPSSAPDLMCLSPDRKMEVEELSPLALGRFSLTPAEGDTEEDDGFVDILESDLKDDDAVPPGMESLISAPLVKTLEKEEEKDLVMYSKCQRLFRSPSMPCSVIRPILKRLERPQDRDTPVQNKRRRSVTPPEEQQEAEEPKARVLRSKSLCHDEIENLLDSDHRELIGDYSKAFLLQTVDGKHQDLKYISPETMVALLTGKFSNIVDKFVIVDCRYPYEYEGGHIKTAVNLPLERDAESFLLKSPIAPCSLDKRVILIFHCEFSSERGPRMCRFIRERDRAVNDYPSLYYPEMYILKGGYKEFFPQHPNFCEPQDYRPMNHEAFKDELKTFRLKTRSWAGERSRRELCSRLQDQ
Test: inhibition of Cdc25B catalytic domain activity – biochemical, with glutathione, probe assessment, dose response (AID 671)

| SMILES | IC50 [µM] |
| --- | --- |
| O=C(Nc1ccc2nc(-c3ccco3)c(-c3ccco3)nc2c1)N1CCCCCC1 | 23.7 |
| Cc1ccc2c(c1C)NC(C(=O)O)C1CC=CC21 (stereo unspecified) | 4.73 |
| O=C(O)C1Nc2c(O)cccc2C2C=CCC12 (stereo unspecified) | 6.76 |
| Cn1ncnc2c(=O)n(C)c(=O)nc1-2 | 35.5 |
| [O-]/[N+](=C\c1ccncc1)c1ccccc1 | > 50 |
| COc1cccc2c(C)c(C(=O)O)[nH]c12 | 6.8 |
| O=C1C=Cc2ccccc2C1=O [1,2-dihydronaphthalene-1,2-dione] | 25 |
| CCn1nc(-c2ccccc2)nc2c(=O)n(C)c(=O)nc1-2 [1-Ethyl-6-methyl-3-phenyl-1H-pyrimido[5,4-e][1,2,4]triazine-5,7-dione] | > 50 |
| [O-]/[N+](=C\c1ccc(OC(F)F)cc1)c1ccccc1 [1-[4-(difluoromethoxy)phenyl]-N-phenylmethanimine oxide] | > 50 |
| CCn1nc(-c2cccs2)nc2c(=O)n(C)c(=O)nc1-2 [1-ethyl-6-methyl-3-thiophen-2-yl-pyrimido[5,4-e][1,2,4]triazine-5,7-dione] | > 50 |
| O=C1Cc2ccccc2C(=O)N1CCc1ccccc1 [2-(2-phenylethyl)-4H-isoquinoline-1,3-dione] | > 50 |
| N#Cc1c(N)sc(=S)c2c1CCN(Cc1ccccc1)C2 [3-Amino-7-benzyl-1-thioxo-5,6,7,8-tetrahydro-1H-thiopyrano[3,4-c]pyridine-4-carbonitrile] | 43 |
| Cc1ccccc1Nc1cc2ccccc2c(O)n1 [3-[(2-methylphenyl)amino]-2H-isoquinolin-1-one] | > 50 |
| COc1ccc(Br)cc1C=c1sc2nc(-c3ccco3)nn2c1=O [5-[(5-bromanyl-2-methoxy-phenyl)methylidene]-2-(furan-2-yl)-[1,3]thiazolo[3,2-b][1,2,4]triazol-6-one] | 2.13 |
| CC(=O)Nc1cc(OC(C)=O)c2nonc2c1OC(C)=O [Acetic acid 7-acetoxy-5-acetylamino-benzo[1,2,5]oxadiazol-4-yl ester] | > 50 |
| c1ccc(CSc2nnc(-c3ccco3)c(-c3ccco3)n2)cc1 [MLS-0029114.0001] | 11.1 |
| O=C(NC1(O)C(=O)c2ccccc2C1=O)c1ccccc1 [N-(2-hydroxy-1,3-dioxo-2-indenyl)benzamide] | > 50 |
| Nc1cccc2cnccc12 [isoquinolin-5-amine] | > 50 |

More lines, now with the values ahead:

| IC50 [µM] | SMILES |
| --- | --- |
| > 50 | CCOC(=O)C(C(=O)OCC)c1cc(Br)c2noc3c2c1C(=O)c1ccccc1-3 [MLS000038842] |
| > 50 | Oc1nc(Nc2ccccc2)cc2ccccc12 [MLS000043701] |
| > 50 | Cc1c(N=c2c(=O)c3ccccc3c2=O)c(=O)n(-c2ccccc2)n1C [MLS000105950] |
| > 50 | CCOc1ccc2noc3c2c1C(=O)c1ccccc1-3 [MLS000106837] |
| > 50 | COc1ccc2noc3c2c1C(=O)c1ccccc1-3 [MLS000106874] |
| 8.23 | COc1cccc2c1NC(C(=O)O)C1CC=CC21 (stereo unspecified) [SMR000009698] |
| 2.79 | O=C(OC1CCCCC1)c1ccc2c(c1)C1C=CCC1C(C(=O)O)N2 (stereo unspecified) [SMR000019385] |
| > 50 | N#Cc1c(N2CCCC2)nc(N)c2c(N)nc(N3CCCC3)cc12 [SMR000061605] |
